pIC50: −log10 of the molar value.
Target: T1, MT3 sites (Mesocricetus auratus, UniProt A0ABM2YAB8)
T1 construct: carried out on hamster brain membranes using 2-[^125I] iodomelatonin as radioligand; from tissue; host or cells: hamster brain membranes
T1 sequence (A0ABM2YAB8 1-231): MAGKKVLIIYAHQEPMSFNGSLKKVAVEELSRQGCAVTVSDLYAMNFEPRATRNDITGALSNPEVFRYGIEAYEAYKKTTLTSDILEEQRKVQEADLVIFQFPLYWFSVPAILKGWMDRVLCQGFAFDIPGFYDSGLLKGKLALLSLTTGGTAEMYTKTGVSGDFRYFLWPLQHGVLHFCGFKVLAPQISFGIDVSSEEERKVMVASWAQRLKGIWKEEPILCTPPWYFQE
Experiment: Study of binding to melatonin MT3 binding sites
Conditions: hamster brain membranes, 2-[125I] iodomelatonin radioligand, 30 minutes, 4° C.
Experimental: Binding to MT3 sites is characterised by remarkably rapid association and dissociation kinetics and by tissue localisation (brain).
The experiments of binding to MT3 sites are carried out on hamster brain membranes using 2-[^125I] iodomelatonin as radioligand in accordance with the protocol described by P. Paul et al. (J. Pharmacol. Exp. Ther. 1999 290, 334). The membranes are incubated for 30 minutes with 2-[^125I] iodomelatonin at a temperature of 4° C. and at different concentrations of the compounds to be tested. Following incubation, the membranes are rapidly filtered and then washed with cold buffer using a filtration system. The radioactivity retained is measured using a scintillation counter.

pIC50: 7.35
Compound: COc1ccc2[nH]cc(CCNC(C)=O)c2c1 [melatonin, N-acetyl-5-methoxytryptamine]

From patent publication US6465660B1, “Isoindoloindolone compounds” (Les Laboratoires Servier, priority 2001, dated 2002)
